A short description of one series: in vitro. Conditions: human.
Series [1] relates to Yellow Fever virus (YFV 17D). The experiment in a line: microbe, parasite or virus in culture. It is filed as cell-based. To be noted: Huh-7, 120 h, read-out: EC50 (concentration required to prevent virus-induced CPE by 50%).
The test system of series [2] is Dengue virus (DENV-2), New Guinea C. Description: microbe, parasite or virus in culture. It counts as cell-based. Conditions: DENV2, Huh-7, 144 h, read-out: EC50 (concentration required to prevent virus-induced CPE by 50%).
Series [3] deals with West Nile virus (WN02 Kern 515). The experiment in a line: microbe, parasite or virus in culture. It counts as cell-based. To be noted: Huh-7, 144 h, read-out: EC50 (concentration required to prevent virus-induced CPE by 50%).

For `CNc1nc(N)nc2c1ncn2[C@@H]1O[C@H](CO[P@@](=O)(N[C@@H](C)C(=O)OC(C)C)Oc2ccccc2)[C@@H](O)[C@]1(F)Cl` [Compound 8, (S)-Isopropyl-2-(((S)-(((2R,3R,4S,5R)-5-(2-amino-6-(methylamino)-9H-purin-9-yl)-4-chloro-4-fluoro-3-hydroxytetrahydrofuran-2-yl)methoxy)(phenoxy)phosphoryl)amino) propanoate], the CC50 in the series “in vitro” was > 100000 nM. In addition, the EC50 in series [1] amounted to 120 nM; in series [2], 320 nM; in series [3], 320 nM.

These data come from patent US20240226131A1, “2'-CHLORO-2'-FLUORO-N2-AMINO-N6-M[…] NUCLEOTIDES FOR […]” (priority 2021, published 2024).
